Measured values reported in BindingDB's records for doi:10.1021/cb4007562 (University of Konstanz, 2014).

Legend:
DNA polymerase lambda = molecular target: T1, DNA polymerase lambda (Homo sapiens, UniProt Q9UGP5); test: DNA Pol λ PEX Assay; settings: pH 7.5
T1 sequence (Q9UGP5 whole entry): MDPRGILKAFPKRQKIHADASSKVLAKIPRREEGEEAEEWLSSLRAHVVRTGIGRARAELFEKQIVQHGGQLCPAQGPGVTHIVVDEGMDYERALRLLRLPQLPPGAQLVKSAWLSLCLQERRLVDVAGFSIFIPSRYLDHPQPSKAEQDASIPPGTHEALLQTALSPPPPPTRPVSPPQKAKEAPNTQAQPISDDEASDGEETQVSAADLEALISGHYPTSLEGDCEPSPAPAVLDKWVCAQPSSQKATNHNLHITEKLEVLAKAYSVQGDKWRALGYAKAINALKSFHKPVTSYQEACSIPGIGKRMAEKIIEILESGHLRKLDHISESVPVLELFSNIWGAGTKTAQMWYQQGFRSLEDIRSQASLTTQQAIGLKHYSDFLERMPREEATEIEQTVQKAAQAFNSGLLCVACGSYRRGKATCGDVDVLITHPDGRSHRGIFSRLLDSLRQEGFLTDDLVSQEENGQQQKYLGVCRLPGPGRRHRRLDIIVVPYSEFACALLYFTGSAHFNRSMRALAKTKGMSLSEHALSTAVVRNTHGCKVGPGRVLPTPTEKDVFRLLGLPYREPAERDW
Description: Pol λ reactions were made in a final volume of 20uL containing 50mM Tris-HCl pH 7.5, 1.5mM MgCl2, 5% (v/v) glycerol, 1mM DTT, 250nM purified recombinant pol λ, 150nM radioactive-labled primer F20H, 225nM template F33A, 0.1mg/mL BSA, 1uL compound solution with variable concentrations in DMSO (1uL DMSO for the solvent control). 5uL dNTP solution (15uM final) was added to initiate the reactions and positive controls. Reactions and controls were incubated for 30 min at 37 degrees Celsius and subsequently quenched using 45uL PAGE loading solution (80% (v/v) formamide, 20mM EDTA, 0.05% (w/v) bromophenol blue, 0.05% (w/v) xylene cyanol) per well. The reaction mixture was denatured for 5 min at 95 degrees Celsius and analyzed by 12% PAGE containing 8M urea.

DNA polymerase beta = DNA polymerase beta (Homo sapiens, UniProt P06746); test: DNA Pol β PEX Assay; settings: pH 7.9
Description: Pol β reactions were made in a final volume of 20uL containing 50mM Tris-HCl pH 7.9, 20mM KCl, 5% (v/v) glycerol, 1mM DTT, 2mM MnCl2, 250nM purified recombinant pol β, 150nM radioactive-labeled primer F20H, 225nM template F33A, 0.1mg/mL BSA, 1uL compound solution with various concentrations in DMSO (1uL DMSO for the solvent control). 5uL dNTP (15uM final) was added to initiate the reactions and positive controls. Reactions and controls were incubated for 30 min at 37 degrees Celsius and subsequently quenched using 45uL PAGE loading solution (80% (v/v) formamide, 20mM EDTA, 0.05% (w/v) bromophenol blue, 0.05% (w/v) xylene cyanol) per well. The reaction mixture was denatured for 5 min at 95 degrees Celsius and analyzed by 12% PAGE containing 8M urea.

Row | Structure (SMILES) | IC50 (DNA polymerase lambda) [µM] | IC50 (DNA polymerase beta) [µM]
1 | Cc1ccc(S(=O)(=O)c2ccc(C=C3SC(S)=NC3=O)cc2[N+](=O)[O-])cc1 [(Z)-5-(3-Nitro-4-tosylbenzylidene)-2-thioxothiazolidin-4-one 10] | < 20 | –
2 | Cc1ccccc1Sc1ccc(C=C2SC(S)=NC2=O)cc1F [(Z)-5-(3-Fluoro-4-(o-tolylthio)benzylidene)-2-thioxothiazolidin-4-one 29] | < 10 | 50
3 | Cc1ccc(Sc2ccc(C=C3SC(O)=NC3=O)cc2[N+](=O)[O-])cc1 [(Z)-5-(3-Nitro-4-(p-tolylthio)benzylidene)thiazolidine-2,4-dione 3] | < 10 | > 50
4 | CCc1ccc(Sc2ccc(C=C3SC(S)=NC3=O)cc2[N+](=O)[O-])cc1 [(Z)-5-(4-((4-Ethylphenyl)thio)-3-nitrobenzylidene)-2-thioxothiazolidin-4-one 17] | < 10 | < 50
5 | Cc1ccc(Sc2ccc(C=C3SC(S)=NC3=O)cc2)cc1 [(Z)-2-Thioxo-5-(4-(p-tolylthio)benzylidene)thiazolidin-4-one 11] | < 10 | < 50
6 | O=C1N=C(S)SC1=Cc1ccc(Sc2ccc(OC(F)(F)F)cc2)c([N+](=O)[O-])c1 [(Z)-5-(3-Nitro-4-((4-(trifluoromethoxy)phenyl)thio)benzylidene)-2-thioxothiazolidin-4-one 19] | < 20 | > 50
7 | Cc1ccc(Sc2ccc(C=C3SC(S)=NC3=O)cc2C(F)(F)F)cc1 [(Z)-2-Thioxo-5-(4-(p-tolylthio)-3-(trifluoromethyl)benzylidene)thiazolidin-4-one 15] | < 10 | 28.1
8 | Cc1ccccc1Sc1ccc(C=C2SC(S)=NC2=O)cc1 [23 (Z)-2-Thioxo-5-(4-(o-tolylthio)benzylidene)thiazolidin-4-one 28] | < 10 | 50
9 | O=C1N=C(S)SC1=Cc1ccc(SC2CCCC2)c([N+](=O)[O-])c1 [(Z)-5-(4-(Cyclopentylthio)-3-nitrobenzylidene)-2-thioxothiazolidin-4-one 26] | < 20 | > 50
10 | Cc1ccc(Sc2ccc(C=C3SC(S)=NC3=O)cc2C#N)cc1 [(Z)-5-((4-Oxo-2-thioxothiazolidin-5-ylidene)methyl)-2-(ptolylthio) benzonitrile 16] | < 10 | –
11 | O=C1N=C(S)SC1=Cc1ccc(SC2CCCCC2)c([N+](=O)[O-])c1 [(Z)-5-(4-(Cyclohexylthio)-3-nitrobenzylidene)-2-thioxothiazolidin-4-one 2] | < 10 | < 50

Results, then the compound that gave them:

Row | IC50 (DNA polymerase lambda) [µM] | IC50 (DNA polymerase beta) [µM] | Structure (SMILES)
12 | < 10 | > 50 | O=C1N=C(S)SC1=Cc1ccc(Sc2ccc(C(F)(F)F)cc2)c([N+](=O)[O-])c1 [(Z)-5-(3-Nitro-4-((4-(trifluoromethyl)phenyl)thio)benzylidene)-2-thioxothiazolidin-4-one 18]
13 | < 10 | > 50 | Cc1ccc(Sc2ccc(C=C3SC(S)=NC3=O)cc2Br)cc1 [(Z)-5-(3-Bromo-4-(p-tolylthio)benzylidene)-2-thioxothiazolidin-4-one 14]
14 | < 10 | 38.7 | Cc1ccc(Sc2ccc(C=C3SC(S)=NC3=O)cc2F)cc1 [(Z)-5-(3-Fluoro-4-(p-tolylthio)benzylidene)-2-thioxothiazolidin-4-one 12]
15 | < 10 | > 50 | O=C1N=C(S)SC1=Cc1ccc(Sc2c(F)c(F)c(C(F)(F)F)c(F)c2F)c([N+](=O)[O-])c1 [(Z)-5-(3-Nitro-4-((2,3,5,6-tetrafluoro-4-(trifluoromethyl)phenyl)thio)benzylidene)-2-thioxothiazolidin-4-one 21]
16 | < 10 | < 50 | Cc1ccccc1Sc1ccc(C=C2SC(S)=NC2=O)cc1C(F)(F)F [(Z)-2-Thioxo-5-(4-(o-tolylthio)-3-(trifluoromethyl)benzylidene)thiazolidin-4-one 30]
17 | 5.7 | > 50 | Cc1ccc(Sc2ccc(C=C3SC(S)=NC3=O)cc2Cl)cc1 [(Z)-5-(3-Chloro-4-(p-tolylthio)benzylidene)-2-thioxothiazolidin-4-one 13]
18 | < 10 | < 50 | Cc1ccc(Sc2sc(C=C3SC(S)=NC3=O)cc2Br)cc1 [(Z)-5-((4-Bromo-5-(p-tolylthio)thiophen-2-yl)methylene)-2-thioxothiazolidin-4-one 32]
19 | 4 | > 50 | Cc1ccc(Sc2ccc(C=C3SC(S)=NC3=O)cc2Br)cc1F [(Z)-5-(3-Bromo-4-((3-fluoro-4-methylphenyl)thio)benzylidene)-2-thioxothiazolidin-4-one 27]
20 | < 10 | < 50 | C=C(c1ccc(Sc2ccc(C)cc2)c([N+](=O)[O-])c1)c1sc(S)nc1O [(Z)-5-(1-(3-Nitro-4-(p-tolylthio)phenyl)ethylidene)-2-thioxothiazolidin-4-one 8]
21 | < 10 | > 50 | O=C1N=C(S)SC1=Cc1ccc(Sc2ccc3ccccc3c2)c([N+](=O)[O-])c1 [(Z)-5-(4-(Naphthalen-2-ylthio)-3-nitrobenzylidene)-2-thioxothiazolidin-4-one 25]
22 | < 10 | > 50 | Cc1ccc(Sc2ccc(C=C3SC(S)=NC3=O)cc2[N+](=O)[O-])cc1F [(Z)-5-(4-((3-Fluoro-4-methylphenyl)thio)-3-nitrobenzylidene)-2-thioxothiazolidin-4-one 20]
23 | 4 | < 50 | Cc1ccc(Sc2ccc(C=C3SC(S)=NC3=O)c(Sc3ccc(C)cc3)c2)cc1 [(Z)-5-(2,4-Bis(p-tolylthio)benzylidene)-2-thioxothiazolidin-4-one 31]
24 | 5.9 | 64.4 | Cc1ccc(Sc2ccc(C=C3SC(S)=NC3=O)cc2[N+](=O)[O-])cc1 [DNA polymerase inhibitor 1]
25 | 6 | 29.8 | Cc1cccc(Sc2ccc(C=C3SC(S)=NC3=O)cc2[N+](=O)[O-])c1 [(Z)-5-(3-Nitro-4-(m-tolylthio)benzylidene)-2-thioxothiazolidin-4-one 22]
26 | 3.9 | 18.2 | Cc1ccccc1Sc1ccc(C=C2SC(S)=NC2=O)cc1[N+](=O)[O-] [(Z)-5-(3-Nitro-4-(o-tolylthio)benzylidene)-2-thioxothiazolidin-4-one 23]
